{"source": "patent US12527838B2", "about": "“Combination therapies comprising an agent that blocks the interaction between CD47 and SIRPα for treating gastric or gastroesphageal junction cancel” (ALX Oncology Inc., priority 2019, dated 2026)", "key": {"[1]": {"conditions": "cited from earlier work"}, "HL60 cells": {"system": "HL60 cells", "assay": "In vitro phagocytosis of HL60 cells by human monocyte-derived macrophages", "type": "cell-based", "conditions": "20 nM Drug A, 125 nM venetoclax; FIG. 5A", "protocol": "CD14^+ monocytes were purified by negative selection using the Classical Monocytes Isolation Kit, human (Miltenyi Biotec) and LS columns (Miltenyi Biotec) according to the manufacturer's protocol. CD14^+ monocytes were seeded into 150 mm tissue culture dishes (Corning) at 6 million cells per dish in 25 mL medium comprised of RPMI complete media, supplemented with 50 ng/mL M-CSF (Miltenyi Biotec), 10% human FBS serum (Thermo Fisher Scientific), 1% penicillin/streptomycin, and 1% GlutaMAX. Cells were cultured for seven to eleven days.\nHL60 and OCI-AML3 cells were washed once in PBS and labeled with the Celltrace CFSE Cell Proliferation kit (Thermo Fisher Scientific) in suspension with 300 nM CFSE (carboxyfluorescein succinimidyl ester) according to the manufacturer's instructions and resuspended in RPMI complete media. […] Prior to incubation with macrophages, cells were resuspended in RPMI. Macrophages were detached from culture plates by washing once with PBS and incubation in TrypLE Select for 20 minutes at 37° C. Cells were removed with a cell scraper (Corning), washed in PBS, and resuspended in RPMI. […]\nBriefly HL60 cells and OCI-AML3 cells (i.e., “target cells”) were labeled with CFSE (carboxyfluorescein succinimidyl ester) and treated with venetoclax for 48 hours. […] Macrophage cells were pelleted, stained, and analyzed via flow cytometry. […]"}, "RS4;11 leukemia cells": {"system": "RS4;11 leukemia cells", "assay": "RS4;11 xenograft model (acute leukemia)", "type": "in vivo, NOD-SCID female mice", "procedure": "The RS4;11 cells (described in Stong et al. (1985) Blood. 65(1): 21-31) was injected into the right flank of NOD-SCID female mice at a concentration of 5×10^6 cells per mouse using a 1:1 matrigel (Corning) and RPMI 1640 ratio. Tumors were monitored until the average size of all tumors reached 190 mm^3. […] The formulation for Venetoclax was a ratio of DMSO:ethanol:Cremophor EL:dextrose 5% in water (D5W) was […], by volume. Venetoclax-treated mice were dosed with 250 μg of Venetoclax by oral gavage 2 times total, 3 days apart. Drug A-treated mice were dosed IP at 10 mg/kg, 4 times total, 3-4 days apart. […] Tumors were measured in two dimensions with calipers, and tumor volume was calculated as: length×width×width×0.5, where length was the larger of the two measurements."}, "[2]": {"system": "BCL-XL-dependent cells, such as platelets", "conditions": "cited from earlier work"}, "MCL-1": {"target": "MCL-1 (Homo sapiens, UniProt Q07820)", "sequence (Q07820 whole entry, species assumed)": "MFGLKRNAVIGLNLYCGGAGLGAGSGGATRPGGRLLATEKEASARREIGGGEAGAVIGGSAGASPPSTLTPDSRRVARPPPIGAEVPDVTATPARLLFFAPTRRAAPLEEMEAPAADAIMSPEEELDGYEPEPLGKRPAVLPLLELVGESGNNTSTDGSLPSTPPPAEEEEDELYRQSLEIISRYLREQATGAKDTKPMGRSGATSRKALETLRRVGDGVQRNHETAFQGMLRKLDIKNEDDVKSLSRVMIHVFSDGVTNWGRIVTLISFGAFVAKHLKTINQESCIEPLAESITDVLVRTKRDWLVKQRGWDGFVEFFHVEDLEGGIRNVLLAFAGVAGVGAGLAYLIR", "conditions": "selectivity profile; cited from earlier work"}, "BFL-1 (BCL2A1/A1)": {"target": "T1, BFL-1 (BCL2A1/A1) (Homo sapiens, UniProt Q16548)", "T1 sequence (Q16548 1-175)": "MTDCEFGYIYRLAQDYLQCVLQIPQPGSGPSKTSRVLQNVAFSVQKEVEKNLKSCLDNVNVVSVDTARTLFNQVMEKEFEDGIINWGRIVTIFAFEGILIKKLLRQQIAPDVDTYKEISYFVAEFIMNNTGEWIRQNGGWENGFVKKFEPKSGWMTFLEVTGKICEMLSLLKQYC", "conditions": "selectivity profile; cited from earlier work"}, "BCL-XL": {"target": "BCL-XL (Homo sapiens, UniProt Q07817)", "sequence (Q07817 whole entry, species assumed)": "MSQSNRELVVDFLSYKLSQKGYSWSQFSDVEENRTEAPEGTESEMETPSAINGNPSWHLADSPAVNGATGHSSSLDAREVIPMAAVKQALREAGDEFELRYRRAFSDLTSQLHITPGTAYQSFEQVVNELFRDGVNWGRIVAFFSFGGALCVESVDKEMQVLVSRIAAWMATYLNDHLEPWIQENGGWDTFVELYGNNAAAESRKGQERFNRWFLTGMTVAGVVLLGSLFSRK", "conditions": "selectivity profile; cited from earlier work"}, "CT26 tumor cells": {"system": "CT26 tumor cells", "assay": "CT26 syngeneic mouse colon carcinoma model", "type": "in vivo, BALB/c female mice", "procedure": "The CT26 cells (see Wang et al. (1995) J. Immunol. 154:4685-4692) were injected into the right flank of BALB/c female mice at a concentration of 5×10^5 cells per mouse in RPMI 1640. Tumors were monitored until the average size of all tumors reached 65-70 mm^3. […] The two 30 mpk doses were given 10 days apart. […] Mice receiving both cisplatin and Drug were administered with cisplatin (IP) according to one of the regimens described above, and with Drug A as described above. In mice receiving combination treatment, Drug A was administered one day after cisplatin. Tumors were measured in two dimensions with calipers, and tumor volume was calculated as: length×width×width×0.5, where length was the larger of the two measurements."}}, "data": [{"smiles": "CC1(C)CCC(CN2CCN(c3ccc(C(=O)NS(=O)(=O)c4ccc(NCC5CCOCC5)c([N+](=O)[O-])c4)c(Oc4cnc5[nH]ccc5c4)c3)CC2)=C(c2ccc(Cl)cc2)C1", "note": "[venetoclax, 4-(4-{[2-(4-chlorophenyl)-4,4dimethylcyclohex-1-en-1-yl]methyl}piperazin-1-yl)-N-({3-nitro-4-[(tetrahydro-2H-pyran-4ylmethyl)amino]phenyl}sulfonyl)-2-(1H-pyrrolo[2,3-b]pyridin-5-yloxy)benzamide]", "values": [{"measurement": "aqueous solubility", "setting": "[1]", "result": "very low aqueous solubility"}, {"measurement": "macrophage-mediated phagocytosis of HL60 cells", "setting": "HL60 cells", "result": "stimulated macrophage-mediated phagocytosis of HL60 cells"}, {"measurement": "average tumor volume", "setting": "RS4;11 leukemia cells; Day 65, re-treated mice (n=5/group)", "result": "about 1685 mm^3"}, {"measurement": "tumor-free (TF) mice", "setting": "RS4;11 leukemia cells; day 41", "result": "1 out of 10"}, {"measurement": "tumor growth (tumor volume)", "setting": "RS4;11 leukemia cells; venetoclax 250 μg oral gavage 2 times, Drug A 10 mg/kg IP 4 times, FIG. 1A", "result": "inhibited tumor growth"}]}, {"smiles": "O=C(c1cc(-c2cc3c(cc2C(=O)N2Cc4ccccc4C[C@H]2CN2CCOCC2)OCO3)n2c1CCCC2)N(c1ccccc1)c1ccc(O)cc1", "note": "[Drug S55746, (S)—N-(4-hydroxyphenyl)-3-(6-(3-(morpholinomethyl)-1,2,3,4-tetrahydroisoquinoline-2-carbonyl)benzo[d][1,3]dioxol-5-yl)-N-phenyl-5,6,7,8-tetrahydroindolizine-1-carboxamide]", "values": [{"measurement": "cytotoxic activity", "setting": "[2]", "result": "no cytotoxic activity"}, {"measurement": "binding to MCL-1", "setting": "MCL-1", "result": "no significant binding"}, {"measurement": "binding to BFL-1 (BCL2A1/A1)", "setting": "BFL-1 (BCL2A1/A1)", "result": "no significant binding"}, {"measurement": "affinity for BCL-XL", "setting": "BCL-XL", "result": "poor affinity"}]}, {"smiles": "N.N.[Cl][Pt][Cl]", "note": "[cisplatin, dichloroplatinum diammoniate]", "values": [{"measurement": "mice with a tumor volume<500 mm^3", "setting": "CT26 tumor cells; cisplatin two 5 mpk doses regimen", "result": 10, "unit": "%"}, {"measurement": "tumor growth", "setting": "CT26 tumor cells; day 20, cisplatin two 5 mpk doses 10 days apart, Drug A two 30 mpk doses, FIG. 2A", "result": "inhibited somewhat"}]}, {"smiles": "[NH2][Pt]1([NH2])[O]C(=O)C2(CCC2)C(=O)[O]1", "note": "[Carboplatin, platinum, diammine [1,1cyclobutane-dicarboxylato(2-)-0,0]-, (SP-4-2)]", "values": [{"measurement": "aqueous solubility", "setting": "[1]", "result": "water-soluble"}]}]}
